Test results reported in patent US8629102B2, “3-hydroxyisothiazole 1-oxide derivatives” (Mochida Pharmaceutical Co., Ltd., priority 2011, dated 2014).

biological target: T1, GPR40 of human origin (Homo sapiens, UniProt O14842); test: Agonist action on GPR40 of human origin (intracellular Ca2+ change); assay type: cell-based; conditions: CHO cell strain stably expressing GPR40 of human origin; change in Ca2+ concentration, fluorescent calcium indicator
T1 construct: expressed in transfected cells
Method: Pharmacological Test Example 1: Agonist Action on GPR40 of Human Origin
A CHO cell strain stably expressing GPR40 of human origin was used to determine the agonist action of a subject compound. This cell strain was seeded in a clear bottom 96 well plate at 4×10^4 cells/100 pt/well. The cell strain iswas cultured in a CO2 incubator overnight using a Ham's F-12 medium containing a 10% fetal bovine serum, 100 U/mL penicillin, 0.1 mg/mL streptomycin, and 400 μg/mL Geneticin. Calcium 4 Assay Kit (Molecular Devices) was used as a fluorescent calcium indicator. One mL of 77 mg/mL probenecid (Invitrogen) was added to 100 mL of a calcium indicator solution to prepare a solution (loading solution) mixed with a 20 mM HEPES-containing Hanks' balanced salt solution (HBSS) in equal proportions. To the cells from which the culture solution is removed, 200 μl of the loading solution was added, and the cells were cultured in a CO2 incubator for 1 hour. The subject compound was diluted with a 20 mM HEPES-containing HBSS and was added to the cells by 50 μL, and the change in the Ca^2+ concentration was measured with an intracellular ion analyzer. The EC50 value of the subject compound was calculated using the dose-response curve of fluorescence intensity variation.

T1 sequence (O14842 whole entry): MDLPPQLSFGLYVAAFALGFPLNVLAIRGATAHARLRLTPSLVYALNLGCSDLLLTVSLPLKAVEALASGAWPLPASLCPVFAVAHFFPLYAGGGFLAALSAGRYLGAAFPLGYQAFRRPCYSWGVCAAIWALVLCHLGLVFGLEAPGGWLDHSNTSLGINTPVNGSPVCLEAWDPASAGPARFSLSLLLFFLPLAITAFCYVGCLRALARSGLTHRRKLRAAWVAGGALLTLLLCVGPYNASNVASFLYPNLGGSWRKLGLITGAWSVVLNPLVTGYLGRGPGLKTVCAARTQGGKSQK

SMILES	EC50 [µM]
[O-][s+]1nc(O)cc1-c1ccc(O[C@@H]2CCc3c(Oc4cccnc4)cccc32)cc1 (single isomer, unassigned) [Example 85]	< 0.3
N#Cc1ccc(Oc2cccc3c2OCC3Oc2ccc(-c3cc(O)n[s+]3[O-])cc2)cc1 (single isomer, unassigned) [Example 144-a, 4-((3-(4-(3-hydroxy-1-oxidoisothiazol-5-yl)phenoxy)-2,3-dihydrobenzofuran-7-yl)oxy)benzonitrile]	< 0.3
N#Cc1ccc(Oc2cccc3c2OCC3Oc2ccc(-c3cc(O)n[s+]3[O-])cc2)cc1 (single isomer, unassigned) [Example 144-b, 4-((3-(4-(3-hydroxy-1-oxidoisothiazol-5-yl)phenoxy)-2,3-dihydrobenzofuran-7-yl)oxy)benzonitrile]	0.3 to 3
[O-][s+]1nc(O)cc1-c1ccc(OC2COc3c(Oc4ccccc4)cccc32)cc1 (single isomer, unassigned) [Example 145-a, 3-hydroxy-5-(4-((7-phenoxy-2,3-dihydrobenzofuran-3-yl)oxy)phenyl)isothiazole 1-oxide]	< 0.3
[O-][s+]1nc(O)cc1-c1ccc(OC2COc3c(Oc4ccccc4)cccc32)cc1 (single isomer, unassigned) [Example 145-b, 3-hydroxy-5-(4-((7-phenoxy-2,3-dihydrobenzofuran-3-yl)oxy)phenyl)isothiazole 1-oxide]	0.3 to 3
Cc1cc(OCCC(C)(C)O)cc(C)c1-c1cccc2c1OCC2Oc1ccc(-c2cc(O)n[s+]2[O-])cc1 (single isomer, unassigned) [Example 148-a, 3-hydroxy-5-(4-((7-(4-(3-hydroxy-3-methylbutoxy)-2,6-dimethylphenyl)-2,3-dihydrobenzofuran-3-yl)oxy)phenyl)isothiazole 1-oxide]	< 0.3
Cc1cc(OCCC(C)(C)O)cc(C)c1-c1cccc2c1OCC2Oc1ccc(-c2cc(O)n[s+]2[O-])cc1 (single isomer, unassigned) [Example 148-b, 3-hydroxy-5-(4-((7-(4-(3-hydroxy-3-methylbutoxy)-2,6-dimethylphenyl)-2,3-dihydrobenzofuran-3-yl)oxy)phenyl)isothiazole 1-oxide]	0.3 to 3
[O-][s+]1nc(O)cc1-c1ccc(OC2COc3c(Br)cccc32)cc1 (single isomer, unassigned) [Example 150, 5-(4-((7-bromo-2,3-dihydrobenzofuran-3-yl)oxy)phenyl)-3-hydroxyisothiazole 1-oxide]	< 0.3
Cc1cc(OCCCS(C)(=O)=O)cc(C)c1-c1cccc2c1OCC2Oc1ccc(-c2cc(O)n[s+]2[O-])cc1 (single isomer, unassigned) [Example 151, 5-(4-((7-(2,6-dimethyl-4-(3-(methylsulfonyl)propoxy)phenyl)-2,3-dihydrobenzofuran-3-yl)oxy)phenyl)-3-hydroxyisothiazole 1-oxide]	< 0.3
COc1ccc(Oc2cccc3c2OCC3Oc2ccc(-c3cc(O)n[s+]3[O-])cc2)cn1 (single isomer, unassigned) [Example 152-a, 3-hydroxy-5-(4-((7-((6-methoxypyridin-3-yl)oxy)-2,3-dihydrobenzofuran-3-yl)oxy)phenyl)isothiazole 1-oxide]	< 0.3
Cc1nc(OCCC(C)(C)O)ccc1Oc1cccc2c1OCC2Oc1ccc(-c2cc(O)n[s+]2[O-])cc1 (single isomer, unassigned) [Example 153-a, 3-hydroxy-5-(4-((7-((6-(3-hydroxy-3-methylbutoxy)-2-methylpyridin-3-yl)oxy)-2,3-dihydrobenzofuran-3-yl)oxy)phenyl)isothiazole 1-oxide]	< 0.3
Cc1nc(OCCC(C)(C)O)ccc1-c1cccc2c1OCC2Oc1ccc(-c2cc(O)n[s+]2[O-])cc1 (single isomer, unassigned) [Example 154-a, 3-hydroxy-5-(4-((7-(6-(3-hydroxy-3-methylbutoxy)-2-methylpyridin-3-yl)-2,3-dihydrobenzofuran-3-yl)oxy)phenyl)isothiazole 1-oxide]	< 0.3
[O-][s+]1nc(O)cc1-c1ccc(OCc2ccc(Oc3ccccc3)cc2)cc1 (single isomer, unassigned) [Example 160, 3-hydroxy-5-(4-((4-phenoxybenzyl)oxy)phenyl)isothiazole 1-oxide]	< 0.3
[O-][s+]1nc(O)cc1-c1ccc(OC2CCc3cc(Br)ccc32)cc1 (stereo not drawn) [Example 1, 5-(4-((5-bromo-2,3-dihydro-1H-inden-1-yl)oxy)phenyl)-3-hydroxyisothiazole 1-oxide]	< 0.3
Cc1cc(OCCCS(C)(=O)=O)cc(C)c1-c1cccc(CNc2ccc(-c3cc(O)n[s+]3[O-])cc2)c1 (stereo not drawn) [Example 2, 5-(4-(((2′,6′-dimethyl-4′-(3-(methylsulfonyl)propoxy)-[1,1′-biphenyl]-3-yl)methyl)amino)phenyl)-3-hydroxyisothiazole 1-oxide]	< 0.3

Further lines, results first:

EC50 [µM]	SMILES
< 0.3	[O-][s+]1nc(O)cc1-c1ccc(O[C@@H]2CCc3c(Br)cccc32)cc1 (single isomer, unassigned) [Example 3]
< 0.3	Cc1ccc(Cl)c(-c2cccc3c2CC[C@H]3Oc2ccc(-c3cc(O)n[s+]3[O-])cc2)c1 (single isomer, unassigned) [Example 15]
0.3 to 3	CC(C)c1ccc(-c2cccc3c2CC[C@H]3Oc2ccc(-c3cc(O)n[s+]3[O-])cc2)cc1 (single isomer, unassigned) [Example 26]
< 0.3	[O-][s+]1nc(O)cc1-c1ccc(O[C@@H]2CCc3c(-c4cccc5ccccc45)cccc32)cc1 (single isomer, unassigned) [Example 35]
< 0.3	[O-][s+]1nc(O)cc1-c1ccc(O[C@@H]2CCc3c(-c4cccnc4Cl)cccc32)cc1 (single isomer, unassigned) [Example 75]
< 0.3	[O-][s+]1nc(O)cc1-c1ccc(O[C@@H]2CCc3c(-c4cccc5c4oc4ccccc45)cccc32)cc1 (single isomer, unassigned) [Example 80]
< 0.3	N#Cc1ccc(Oc2cccc3c2CC[C@H]3Oc2ccc(-c3cc(O)n[s+]3[O-])cc2)cc1 (single isomer, unassigned) [Example 83]
< 0.3	CCOc1ccc(F)cc1-c1cccc2c1CC[C@H]2Oc1ccc(-c2cc(O)n[s+]2[O-])cc1 (stereo partly drawn) [Example 4, 5-(4-(((1R)-4-(2-ethoxy-5-fluorophenyl)-2,3-dihydro-1H-inden-1-yl)oxy)phenyl)-3-hydroxyisothiazole 1-oxide]
< 0.3	Cc1ccc(-c2cccc3c2CC[C@H]3Oc2ccc(-c3cc(O)n[s+]3[O-])cc2)cc1 (stereo partly drawn) [Example 5, 3-hydroxy-5-(4-(((1R)-4-(p-tolyl)-2,3-dihydro-1H-inden-1-yl)oxy)phenyl)isothiazole 1-oxide]
0.3 to 3	[O-][s+]1nc(O)cc1-c1ccc(O[C@@H]2CCc3c(-c4ccc(Cl)cc4)cccc32)cc1 (stereo partly drawn) [Example 6, 5-(4-(((R)-4-(4-chlorophenyl)-2,3-dihydro-1H-inden-1-yl)oxy)phenyl)-3-hydroxyisothiazole 1-oxide]
0.3 to 3	CCOc1ccc(-c2cccc3c2CC[C@H]3Oc2ccc(-c3cc(O)n[s+]3[O-])cc2)cc1 (stereo partly drawn) [Example 7, 5-(4-(((R)-4-(4-ethoxyphenyl)-2,3-dihydro-1H-inden-1-yl)oxy)phenyl)-3-hydroxyisothiazole 1-oxide]
< 0.3	[O-][s+]1nc(O)cc1-c1ccc(O[C@@H]2CCc3c(-c4cccc(Cl)c4)cccc32)cc1 (stereo partly drawn) [Example 8, 5-(4-(((R)-4-(3-chlorophenyl)-2,3-dihydro-1H-inden-1-yl)oxy)phenyl)-3-hydroxyisothiazole 1-oxide]
< 0.3	CCc1ccccc1-c1cccc2c1CC[C@H]2Oc1ccc(-c2cc(O)n[s+]2[O-])cc1 (stereo partly drawn) [Example 9, 5-(4-(((R)-4-(2-ethylphenyl)-2,3-dihydro-1H-inden-1-yl)oxy)phenyl)-3-hydroxyisothiazole 1-oxide]
< 0.3	[O-][s+]1nc(O)cc1-c1ccc(O[C@@H]2CCc3c(-c4ccccc4Cl)cccc32)cc1 (stereo partly drawn) [Example 10, 5-(4-(((R)-4-(2-chlorophenyl)-2,3-dihydro-1H-inden-1-yl)oxy)phenyl)-3-hydroxyisothiazole 1-oxide]
< 0.3	[O-][s+]1nc(O)cc1-c1ccc(O[C@@H]2CCc3c(-c4ccccc4F)cccc32)cc1 (stereo partly drawn) [Example 11, 5-(4-(((R)-4-(2-fluorophenyl)-2,3-dihydro-1H-inden-1-yl)oxy)phenyl)-3-hydroxyisothiazole 1-oxide]
< 0.3	[O-][s+]1nc(O)cc1-c1ccc(O[C@@H]2CCc3c(-c4cc(F)cc(F)c4)cccc32)cc1 (stereo partly drawn) [Example 12, 5-(4-(((R)-4-(3,5-difluorophenyl)-2,3-dihydro-1H-inden-1-yl)oxy)phenyl)-3-hydroxyisothiazole 1-oxide]
< 0.3	Cc1ccc(-c2cccc3c2CC[C@H]3Oc2ccc(-c3cc(O)n[s+]3[O-])cc2)cc1F (stereo partly drawn) [Example 13, 5-(4-(((R)-4-(3-fluoro-4-methylphenyl)-2,3-dihydro-1H-inden-1-yl)oxy)phenyl)-3-hydroxyisothiazole 1-oxide]
< 0.3	COc1cc(Cl)cc(-c2cccc3c2CC[C@H]3Oc2ccc(-c3cc(O)n[s+]3[O-])cc2)c1 (stereo partly drawn) [Example 14, 5-(4-(((R)-4-(3-chloro-5-methoxyphenyl)-2,3-dihydro-1H-inden-1-yl)oxy)phenyl)-3-hydroxyisothiazole 1-oxide]
